Data taken from patent US12324927B2, “Methods and systems for photodynamic therapy calculations” (THE TRUSTEES OF THE UNIVERSITY OF PENNSYLVANIA, priority 2018, dated 2025).

Key:
[1] = test system: radiation induced fibrosarcoma (RIF) tumors; assay: BPD-mediated vascular PDT of RIF tumors: explicit dosimetry and tumor regrowth (cure index); type: in vivo, mice
Method: RIF cells were cultured and 30 μl were injected at 1×10^7 cells/ml intradermally over the right shoulders of 6 to 8 weeks old female C3H mice (NCI-Frederick, Frederick, Maryland), as described previously^10-12. Animals were under the care of the University of Pennsylvania Laboratory Animal Resources. All studies were approved by the University of Pennsylvania Institutional Animal Care and Use Committee. Tumors were treated at a size of ˜3 to 5 mm in diameter. Fur within the region of tumor inoculation was clipped prior to injection of cells, and the treatment area was depilated with Nair (Church & Dwight Co., Inc., Ewing, New Jersey) at least 24 h before measurements. Mice were provided a chlorophyll-free (alfalfa-free) rodent diet (Harlan Laboratories Inc., Indianapolis, Indiana) starting at least 10 days prior to treatment to eliminate the fluorescence signal from chlorophyll-breakdown products, which have a similar emission range to the BPD fluorescence spectra used to determine the concentration of BPD in the tumor. During the delivery of PDT, mice were kept under anesthesia on a heat pad at 38° C.
PDT was delivered using an optical fiber with a microlens attachment coupled to a diode laser. A 690 nm laser (B&W Tek Inc., Newark, Delaware) was used for PDT after a 15 min drug-light interval. The in-air fluence rate (ϕair) is defined as the calculated irradiance determined by the laser power divided by the treatment area (1 cm diameter spot size). The in-air fluence was calculated by multiplying the in-air fluence rate by the treatment time. […]
The in vivo tissue oxygen partial pressure pO2 was measured during PDT treatment using a phosphorescence-based […] (OxyLite Pro, Oxford Optronix, Oxford, United Kingdom). […] The ROS concentration ([ROS]) was calculated by multiplying the measured pO2 with the […] solubility in tissue, which is 1.295 μM/mmHg.^5 Measured [ROS]0 and [ROS](t) were used to calculate reacted oxygen species using the macroscopic singlet oxygen model.^14,15 […]
Tumor volumes were measured daily after PDT. […]

[2] = as printed in b218; cited from earlier work

change of BPD concentration before vs after PDT treatment ([1]; in tumor, FIG. 18): not significant changes
Structure (SMILES): C=Cc1c(C)c2cc3nc(cc4[nH]c(cc5nc(cc1[nH]2)C(C)=C5CCC(=O)O)c(CCC(=O)OC)c4C)[C@@]1(C)C3=CC=C(C(=O)OC)[C@H]1C(=O)OC [BPD, benzoporphyrin derivative monoacid ring A]
[ROS]rx threshold dose smaller than value for conventional BPD-mediated PDT using DLI of 3 hrs ([1]; mouse, in vivo): about 4.3 times | threshold dose for [ROS]rx ([1]; vascular BPD-PDT, DLI 15 min): 0.23 mM | β [2]: 11.9 µM
